Assay [1] concerns Bovine viral diarrhea virus (BVDV). As to the kind of experiment: Pathogen reduction of BVDV in platelet and plasma-containing fluids (photosensitizer + electromagnetic radiation), TCID50. The following applies: fixed net radiant energy 3 Joules cm^−2. The format is cell-based. The text has this: FIG. 4A provides a bar graph showing the average reduction of BVDV pathogen for fluid samples having two different volumes held in containers having nontransmissive labels and exposed to a fixed net radiant energy. […] FIG. 4B provides a bar graph showing the average reduction of BVDV pathogen for fluid samples having two different volumes held in containers not having nontransmissive labels and exposed to a fixed net radiant energy equal to 3 Joules cm^−2. […] The error bars shown in FIGS. 4A and 4B correspond to standard deviations (1σ) corresponding to six independent measurements at each volume.

Assay [2] concerns porcine parvovirus virus (PPV). As to the kind of experiment: Pathogen reduction of PPV in platelet and plasma-containing samples at two agitation rates. The following applies: net radiant energy by Equation V.
Procedure: Platelet and plasma-containing fluid samples having volumes selected over the range of about 200 ml to about 400 ml were illuminated in 1 liter fixed volume, partially transparent containers.
Electromagnetic radiation was provided by two banks of six mercury vapor fluorescent lamps (model number XG25T8E; distributed by Ushio Nichia NP-803 phosphor) positioned above and below the fluid containers. This optical geometry defines two photoreactive layers having thicknesses equal to approximately 1 millimeter corresponding to the top and bottom illuminated surfaces of the fluid. […]
Bovine viral diarrhea virus (BVDV), porcine parvovirus virus (PPV), hepatitis A virus (HAV) and S. aureus bacteria were assayed before and after illumination using TCID50 or plating methods to provide quantitative measurements of the extent of pathogen reduction achieved.
The effect of agitation rate on the extent of pathogen reduction achieved upon treatment of fluids with electromagnetic radiation was also studied by varying the agitation rate provided to the sample container during illumination. Platelet and plasma-containing samples were exposed to net radiant energies calculated using Equation V. Samples were mixed during illumination using two different agitation rates: 120 cycles per minute and 20 cycles per minute.

On to 7,8-dimethyl-10-ribityl isoalloxazine, for which the “average reduction of BVDV pathogen” value is given as “about 2.0 log” in assay [1] (about 230 ml sample, containers with nontransmissive labels); “about 2.3 log” in assay [1] (about 230 ml sample, containers without nontransmissive labels); “about 1.4 log” in assay [1] (about 280 ml sample, containers with nontransmissive labels); “about 1.9 log” in assay [1] (about 280 ml sample, containers without nontransmissive labels). Moreover, the “log decrease in the biological activity of PPV pathogens” value in assay [2] (agitation rate 20 cycles per minute) amounted to 0.72 log; in assay [2] (agitation rate 120 cycles per minute) it was 4.65 log.
